Reference: patent publication US5719278A, “Tricyclic benzazepine vasopressin antagonists” (American Cyanamid Company, priority 1996, dated 1998)

Key:
Rat Hepatic V1 Receptors = molecular target: T1, Rat Hepatic V1 Receptors (Rattus norvegicus, UniProt P30560); assay: Binding Assay to Rat Hepatic V1 Receptors; settings: Rat Hepatic V1 Receptors (no asterisk)
T1 construct: Rat liver plasma membranes expressing the vasopressin V1 receptor subtypes; from tissue; host or cells: rat liver plasma membranes
T1 sequence (P30560 whole entry): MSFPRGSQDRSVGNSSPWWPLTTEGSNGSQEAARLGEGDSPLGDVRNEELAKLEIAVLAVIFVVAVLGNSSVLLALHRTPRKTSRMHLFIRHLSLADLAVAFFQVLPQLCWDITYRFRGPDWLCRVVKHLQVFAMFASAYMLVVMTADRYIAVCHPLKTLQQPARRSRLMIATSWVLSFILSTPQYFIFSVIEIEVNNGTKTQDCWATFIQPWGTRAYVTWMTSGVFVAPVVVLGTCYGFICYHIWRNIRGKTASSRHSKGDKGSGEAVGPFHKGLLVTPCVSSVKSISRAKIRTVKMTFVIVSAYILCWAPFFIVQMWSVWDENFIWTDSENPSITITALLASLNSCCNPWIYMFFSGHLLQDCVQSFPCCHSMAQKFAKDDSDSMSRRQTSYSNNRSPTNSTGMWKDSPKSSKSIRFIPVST
Method: Binding Assay to Rat Hepatic V1 Receptors
Rat liver plasma membranes expressing the vasopressin V1 receptor subtypes are isolated by sucrose density gradient according to the method described by Lesko et al., (1973). These membranes are quickly suspended in 50.0 mM Tris.HCl buffer, pH 7.4, containing 0.2% bovine serum albumin (BSA) and 0.1 mM phenylmethylsulfonylfluoride (PMSF) and kept frozen at -70° C. until used in subsequent binding experiments. For binding experiments, the following is added to the wells of a ninety-six well format microtiter plate: 100 μl of 100.0 mM Tris.HCl buffer containing 10.0 mM MgCl2, 0.2% heat inactivated BSA and a mixture of protease inhibitors: leupeptin, 1.0 mg %; aprotinin, 1.0 mg %, 1,10-phenanthroline,2.0 mg %; trypsin inhibitor, 10.0 mg % and 0.1 mM PMSF, 20.0 μl of [phenylalanyl-3,4,5-^3 H] vasopressin (S.A. 45.1 Ci/mmole) at 0.8 nM, and the reaction initiated by the addition of 80 μl of tissue membranes containing 20 μg of tissue protein. The plates are kept undisturbed on the bench top at room temperature for 120 min. to reach equilibrium. Non-specific samples are assayed in the presence of 0.1 μM of the unlabeled antagonist phenylalanylvasopressin, added in 20.0 μl volume to a final incubation volume of 200 μl. Upon completion of binding, the content of each well is filtered off, using a Brandel® cell Harvester (Gaithersburg, Md.). The radioactivity trapped on the filter disk by the ligand-receptor complex is assessed by liquid scintillation counting in a Packard LS Counter, with an efficiency of 65% for tritium. The data are analyzed for IC50 values by the LUNDON-2 program for competition (LUNDON SOFTWARE, Ohio).

oxytocin receptors = molecular target: T2, oxytocin receptors (Rattus norvegicus, UniProt P70536); assay: Oxytocin Receptor Binding; parameters: species or system Sprague-Dawley rat; settings: for IC50: 1.0 nM [^3 H]OT, 60 min., 22° C.
T2 construct: The uteri are dissected out, cleaned of fat and connective tissues; from tissue; host or cells: uterus of DES-treated female Sprague-Dawley rats
T2 sequence (P70536 1-388): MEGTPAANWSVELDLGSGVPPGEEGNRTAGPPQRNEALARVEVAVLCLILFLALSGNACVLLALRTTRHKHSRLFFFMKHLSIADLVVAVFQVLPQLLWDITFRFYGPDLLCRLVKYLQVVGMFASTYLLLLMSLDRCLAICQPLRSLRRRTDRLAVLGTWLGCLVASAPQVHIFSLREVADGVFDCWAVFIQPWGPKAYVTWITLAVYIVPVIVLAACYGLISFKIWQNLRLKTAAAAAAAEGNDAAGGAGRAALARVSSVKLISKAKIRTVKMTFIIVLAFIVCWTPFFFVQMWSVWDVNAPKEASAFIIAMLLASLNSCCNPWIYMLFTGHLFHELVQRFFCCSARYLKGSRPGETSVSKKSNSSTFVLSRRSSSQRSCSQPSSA
Method: Oxytocin Receptor Binding
Female Sprague-Dawley rats weighing approximately 200-250 g are injected intramuscularly (i.m.) with 0.3 mg/kg of body weight of diethylstilbestrol (DES). The rats are sacrificed 18 hours later under pentobarbital anesthesia. The uteri are dissected out, cleaned of fat and connective tissues and rinsed in 50 ml of normal saline. The tissue pooled from six rats is homogenized in 50 ml of […] TriS.HCl, containing 0.5 mM dithiothreitol and 1.0 mM EDTA, adjusted to pH 7.4, using a polytron at setting 6 with three passes of 10 sec each. The homogenate is passed through two (2) layers of cheesecloth and the filtrate contrifuged at 1000×g for 10 min. The clear supernatant is removed and recentrifuged at 165,000×g for 30 min. The resulting pellet containing the oxytocin receptors is resuspended in 50.0 mM Tris.HCl containing 5.0 mM MgCl2 at pH 7.4, to give a protein concentration of 2.5 mg/ml of tissue suspension. This preparation is used in subsequent binding assays with [^3 H]Oxytocin.
Binding of 3,5-[^3 H]Oxytocin ([^3 H]OT) to its receptors is done in microtiter plates using [^3 H]OT, at various concentrations, in an assay buffer of 50.0 mM Tris.HCl, pH 7.4 and containing 5.0 mM MgCl2, and a mixture of protease inhibitors: BSA, 0.1 mg; aprotinin, 1.0 mg; 1,10-phenanthroline, 2.0 mg; […], 10.0 mg; and PMSF, 0.3 mg per 100 ml of buffer solution. Non-specific binding is determined in the presence of 1.0 uM unlabeled OT. The binding reaction is terminated after 60 min., at 22° C., by rapid filtration through glass fiber filters using a Brandel® cell harvester (Biomedical Research and Development Laboratories, Inc., Gaithersburg, Md.). Competition experiments are conducted at equilibrium using 1.0 nM [^3 H]OT and varying the concentration of the displacing agents. The concentrations of agent displacing 50% of [^3 H]OT at its sites (IC50) are calculated by a computer assisted LUNDON-2 program (LUNDON SOFTWARE INC., Ohio, U.S.A.).

[1] = molecular target: T3, Rat Kidney Medullary V2 Receptors (Rattus norvegicus, UniProt Q00788); assay: Binding Assay to Rat Kidney Medullary V2 Receptors; settings: Rat Kidney Medullary V2 Receptors (no asterisk)
T3 construct: Medullary tissues from rat kidneys are dissected out; from tissue; host or cells: rat kidney medulla membranes
T3 sequence (Q00788 whole entry): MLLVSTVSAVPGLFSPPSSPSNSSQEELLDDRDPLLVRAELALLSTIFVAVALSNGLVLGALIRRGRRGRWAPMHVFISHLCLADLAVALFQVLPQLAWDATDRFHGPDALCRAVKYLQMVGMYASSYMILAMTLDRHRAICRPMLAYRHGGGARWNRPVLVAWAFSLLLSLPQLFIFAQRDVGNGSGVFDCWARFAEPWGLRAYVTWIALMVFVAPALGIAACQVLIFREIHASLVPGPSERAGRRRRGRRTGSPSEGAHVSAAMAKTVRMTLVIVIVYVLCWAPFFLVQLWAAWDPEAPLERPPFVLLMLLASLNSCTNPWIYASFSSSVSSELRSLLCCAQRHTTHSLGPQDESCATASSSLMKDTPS
Method: Binding Assay to Rat Kidney Medullary V2 Receptors
Medullary tissues from rat kidneys are dissected out, cut into small pieces and let soak in a […] sodium chloride solution containing 1.0 mM EDTA with many changes of the liquid phase, until the solution is clear of blood. The tissue is homogenized in a 0.25M sucrose solution containing 1.0 mM EDTA and 0.1 mM PMSF using a Potter-Elvehjem homogenizer with a teflon pestle. The homogenate is filtered through several layers (4 layers) of cheese cloth. The filtrate is rehomogenized using a dounce homogenizer, with a tight fitting pestle. The final homogenate is contrifuged at 1500×g for 15 min. The nuclear pellet is discarded and the supernatant fluid recentrifuged at 40,000×g for 30 min. The resulting pellet formed contains a dark inner part with the exterior, slightly pink. The pink outer part is suspended in a small amount of 50.0 mM Tris.HCl buffer, pH 7.4. The protein content is determined by the Lowry's method (Lowry et al, J. Biol. Chem., 1953). The membrane suspension is stored at -70° C., in 50.0 mM Tris.HCl, containing 0.2% inactivated BSA and 0.1 mM PMSF in aliquots of 1.0 ml containing 10.0 mg protein per ml of suspension until use in subsequent binding experiments.
For binding experiments, the following is added in μl volume to wells of a 96 well format of a microtiter plate: 100.0 μl of 100.0 mM Tris.HCl buffer containing 0.2% heat inactivated BSA, 10.0 mM MgCl2 and a mixture of protease inhibitors: leupeptin, 1.0 mg %; aprotinin, 1.0 mg %; 1,10-phenanthroline, 2.0 mg %; trypsin inhibitor, 10.0 mg % and 0.1 mM PMSF, 20.0 μl of [^3 H]Arginine^8, vasopressin (S.A. 75.0 Ci/mmole) at 0.8 nM and the reaction initiated by the addition of 80.0 μl of tissue membranes (200.0 μg tissue protein). The plates are left undisturbed on the bench top for 120 min. to reach equilibrium. Non-specific binding is assessed in the presence of 1.0 μM of unlabeled ligand, added in 20 μl volume. For test compounds, these are solubilized in 50% dimethylsulfoxide (DMSO) and added in 20.0 μl volume to a final incubation volume of 200 μl. Upon completion of binding, the content of each well is filtered off, using a Brandel® cell Harvester (Gaithersburg, Md.). The radioactivity trapped on the filter disk by the ligand-receptor complex is assessed by liquid scintillation counting in a Packard LS Counter, with an efficiency of 65% for tritium. The data are analyzed for IC50 values by the LUNDON-2 program for competition (LUNDON SOFTWARE, Ohio).

Vasopressin V2 = Vasopressin V2 Antagonist Activity in Conscious Hydrated Rats; format: in vivo, rat; settings: 10 mg/kg orally, N = 2, AVP 0.4 μg/kg intraperitoneally
Method: Vasopressin V2 Antagonist Activity in Conscious Hyrdated Rats
Conscious hydrated rats are treated with compounds under study from 0.1 to 100 mg/kg orally or vehicle. Two to four rats are used for each compound. One hour later, arginine vasopressin (AVP, antidiuretic hormone, ADH) dissolved in peanut oil is administered at 0.4 μg/kg intraperitoneally. Two rats in each test would not receive arginine vasopressin but only the vehicle (peanut oil) to serve as water-loading control. Twenty minutes later each rat is given 30 mL/kg of deionized water orally by gavage and is placed individually in a metabolic cage equipped with a funnel and a graduated glass cylinder to collect urine for four hours. Urine volume is measured and osmolality analyzed by use of a Fiske One-Ten osmometer (Fiske Assoc., Norwood, Mass. U.S.A.). Urinary sodium, potassium, and chloride are analyzed by use of ion-specific electrodes in a Beckman E3(Electrolyte 3) Analyzer.
In the following results, […] and decreased osmolality relative to AVP-control indicates activity.

| SMILES | IC50 (Rat Hepatic V1 Receptors) | IC50 (oxytocin receptors) | inhibition at 10 µM (oxytocin receptors) | IC50 [1] | Urine Vol. (ml/4 hrs.) (Vasopressin V2) | Osmolality (mOsm/kg) (Vasopressin V2; urine) |
| --- | --- | --- | --- | --- | --- | --- |
| Cn1cc2c(n1)-c1sccc1N(C(=O)c1ccc(NC(=O)C3CCCCC3)cc1)CC2 [Example 6, N-[4-[[4,5-Dihydro-2-methylpyrazolo[3,4-d]thieno[3,2-b]-azepin-6(2H)-yl]carbonyl]phenyl]cyclohexane carboxamide] | 4.7 µM | 1.7 µM | 94% | 0.23 µM |  |  |
| Cc1ccc(F)cc1C(=O)Nc1ccc(C(=O)N2CCc3cn[nH]c3-c3sccc32)cc1 [Example 2, N-[4-[(4,5-Dihydropyrazolo[3,4-d]thieno[3,2-b]azepin-6(1H)-yl)carbonyl]phenyl]-5-fluoro-2methylbenzamide] | 1.7 µM | 1.3 µM | 91% |  | 17.8 ml/4 hrs. | 429 mOsm/kg |
